Experimental data reported in patent publication US8110703B2, “Retinoid derivative and pharmaceutical composition and use thereof” (Anhui Medical University, priority 2008, dated 2012).
Marks after values point to notes of the source that are not given here.

Experiments:
[1] = test system: K562 cells; experiment: Cell cycle analysis by flow cytometer, K562; format: cell-based; parameters: S %: dose or concentration left out as unconfirmed; conditions: 72 h
Method: (§1) Retinoic acid derivatives and fenretinide are prepared as a storage solution of 10 mg/mL by anhydrous ethanol and stored at […] and kept out of light.
(§2) NB4 cells and K562 cells are inoculated with an initial concentration of 2*10^5/ml in the RPMI1640 culture solution having 10% of calf serum (FBS), 100 u/ml of penicillin, 100 Lg/ml of streptomycin and 2 mmol/L of glutamine for suspension culture (37° C., 5% CO2). Change the solution every 2-3 days.
(§3) For the cells above acted by the retinoic acid derivatives and fenretinide ([…]) for 72 h, about 10^6 of them are collected, washed by PBS twice, fixed by 70% of cold ethanol over 24 h, washed by PBS twice, added with 5 ug/ml of propidium iodide for staining and detected by a flow cytometer from which the data are analyzed and processed by the multi-cycle software.

[2] = test system: HepG2 cells; experiment: AFP secretory volume of HepG2 cells; format: cell-based; conditions: for effects on AFP secretory volume (statistics, in words): HepG2, compared with the control groups, P less than 0.05; for AFP: HepG2 cells, DMSO
[3] = test system: HepG2 cells; experiment: Cell cycle and apoptosis by flow cytometry, HepG2; format: cell-based; conditions: HepG2, flow cytometry
[4] = test system: A549 cells; experiment: Differentiation index: CEA secretory volume of A549 cells; format: cell-based; conditions: A549 culture supernatant, 10 ug/ml, 3 d, DMSO
Method: 1.6 Detection of Differentiation Index The cultured A549 cells are randomly divided into 6 10 μg/ml drug groups, cell control groups, solvent control groups (DMSO and ethanol) and 10 μg/ml fenretinide control groups (11 in total). The control groups and drug groups are cultured for 3 days to collect respective 3 tubes of cell culture solutions which are centrifugated at a speed of 4000 r/min for 5 min to take the supernatant and detect the CEA content of the kit by using enzyme kinetics and CEA detection.

[5] = test system: A549 cells; experiment: Cell cycle and apoptosis by flow cytometry, A549; format: cell-based; conditions: A549, 10 μg/ml, 3 days, PI flow cytometry
Method: 1.4 Detection of Cell Cycle and Apoptosis by Flow Cytometry A549 cells in the logarithmic phase are collected, regulated with the concentrations thereof to 8×10^7/L, inoculated in a 6-hole board, cultured in an incubator (37° C. and 5% CO2). After the cells are adhered, the culture solution is discarded, and a culture solution having drugs with the corresponding concentrations is added and divided into 10 μg/ml drug groups, 10 μg/ml fenretinide groups, cell control groups, solvent control groups (1‰ DMSO and anhydrous ethanol) (11 in total). After 3 days, each group of cells is normally digested, collected, blown into single cell suspension, washed by cold PBS twice, and re-suspend by 10 μl PBS. Fixing and member breaking agents and a PI staining solution are added according to the Coulter DNA detection kit and reacted with one another at the room temperature and out of light for 30 min for machine detection. Each sample detects 10000 cells and repeats for three times, and the data are analyzed by Analysis software for the ratio during the G0-G1, S and G2-M periods and the ratio of apoptotic cells.

[6] = test system: A549 lung cancer cells; experiment: MTT cell growth and proliferation experiment, A549; format: cell-based; parameters: key to Inhibition Rate: (control OD570 − test OD570)/control OD570, as fraction; conditions: A549, MTT time gradient, 10 ug/ml; for Inhibition Rate: fraction
Method: (§4) 1.1 Reagents 12 retinoic acid derivatives with the final concentrations of 1 ug/ml, 5 ug/ml and 10 ug/ml are synthesized by the Pharmaceutical College of Anhui Medical University using DMSO and anhydrous ethanol, separately packaged for storage at −20° C. and kept out of the light when used, and the final concentration of DMSO is less than 0.1%. MTT is purchased from Sigma Corp. The Coulter DNA detection kit is presented by the Central Lab of Anhui Provincial Hospital. AFP and γ-GT are provided by the Clinical Lab of No. 105 Hospital of PLA. Apoptosis-Hoechst staining kit is purchased from Beyotime Company.
(§5) 1.2 Cell Culture A549, and HpeG2 cells are stored by our lab. Cell growth condition: DMEM (from GIBICO Company) culture solution is added with 10% of calf serum (purchased from the Hangzhou Sijiqing Biological Engineering Material Co., Ltd.) to culture in a cell culture incubator (37° C., 5% CO2) with saturated humidity.
(§6) 1.3 Cell Growth and Proliferation Experiments MTT process is used. Cells in the logarithmic phase are picked and seeded on a 96-hole culture board with a cell concentration of 5×10^7/L. Each hole of the board is 200 ul. The next day after the adherence, the original solution is discarded, and the culture solution is added. The cells are divided into 1 ug/ml retinoic acid derivative groups, 5 ug/ml retinoic acid derivative groups, 10 ug/ml retinoic acid derivative groups, blank control groups, cell control groups, solvent control groups (1‰ DMSO and anhydrous ethanol) (17 in total) according to the concentrations thereof, incubated for 3d, added with MTT (5 g/L) of 20 ul/hole for incubation at 37° C. for 4 h. The original solution is carefully discarded and dried, and DMSO of 20 ul/hole is added to dissolve crystals, followed by vibrating for 10 min and determining the OD value at 570 nm. Each concentration is corresponding to 5 holes, and each group calculates the average of 3 experiments to calculate the inhibition rate to the cell growth according to the optical density (OD) average of each hole in each group and the following equation: inhibition rate %=(control hole OD570−experimental hole OD570)/control hole OD5700*100%. The process above is repeated for three times. The second experiment takes the maximum concentration (10 […]) for culture respectively for 1, 2, 3 and 7 days and repeat for three times.

[7] = test system: HepG2 cells; experiment: γ-GT specific activity of HepG2 cells; format: cell-based; conditions: DMSO
[8] = test system: liver cancer HepG2 cells; experiment: MTT cell growth and proliferation experiment, HepG2; format: cell-based; parameters: key to Inhibition Rate: (control OD570 − test OD570)/control OD570, as fraction; conditions: for Inhibition Rate: fraction
Method: as §4, §5, §6

[9] = test system: NB4 cells; experiment: Cell cycle analysis by flow cytometer, NB4; format: cell-based; parameters: S %: dose or concentration left out as unconfirmed; conditions: 72 h
Method: as §1, §2, §3

[10] = test system: human acute promyelocytic leukaemia; conditions: cited from earlier work
[11] = HepG2, MTT OD 570 nm, 1 ug/ml, 3 d, solvent not given
[12] = HepG2, MTT OD 570 nm, 5 ug/ml, 3 d, solvent not given
[13] = HepG2, MTT OD 570 nm, 10 ug/ml, 3 d, solvent not given
[14] = HepG2, MTT time gradient, 10 ug/ml, 1 d
[15] = HepG2, MTT time gradient, 10 ug/ml, 2 d
[16] = HepG2, MTT time gradient, 10 ug/ml, 3 d
[17] = HepG2, MTT time gradient, 10 ug/ml, 7 d
[18] = HepG2, MTT, 1 ug/ml, 3 d, solvent not given
[19] = HepG2, MTT, 5 ug/ml, 3 d, solvent not given
[20] = HepG2, MTT, 10 ug/ml, 3 d, solvent not given
[21] = HepG2, Table 5 repeat MTT, 10 ug/ml, 3 days, DMSO

CC1=C(/C=C/C(C)=C/C=C/C(C)=C/C(=O)Nc2ccc(OC(F)(F)F)cc2)C(C)(C)CCC1 [Example 6a-01, (4-trifluoromethoxyphenyl)-(all-trans)-3,7-dimethyl-9-(2,6,6-trimethyl-1-cyclohexen-1-yl)-2,4,6,8-nonatetraenoic acid amide]
G1 % [1]: 34.2% | G2 % [1]: 9.4% | S % [1]: 56.4% | effects on AFP secretory volume (statistics, in words) [2]: meaningful in statistics | AFP [2]: 13.6* ug/L | Apoptosis Rate (%) [3]: 11.1% | G0-G1 (%) [3]: 57.4% | G2-M (%) [3]: 5.30% | S % [3]: 26.7% | CEA [4]: 2.9 µg/L | Apoptosis Rate (%) [5]: 30.5% | G0-G1 (%) [5]: 40.1% | G2-M (%) [5]: 2.34% | S % [5]: 27.9% | OD Value (x ± s) ([6]; 1 d): 0.646 ± 0.019 | Inhibition Rate ([6]; 1 d): 0.296 | OD Value (x ± s) ([6]; 2 d): 0.909 ± 0.065 | Inhibition Rate ([6]; 2 d): 0.378 | OD Value (x ± s) ([6]; 3 d): 0.567 ± 0.057 | Inhibition Rate ([6]; 3 d): 0.389 | OD Value (x ± s) ([6]; 7 d): 1.243 ± 0.024 | Inhibition Rate ([6]; 7 d): 0.401 | γ-GT [7]: 58.0 ± 1.5 U/L | OD Value (x ± s) [8, 11]: 0.97 ± 0.29 | OD Value (x ± s) [8, 12]: 0.89 ± 0.14 | OD Value (x ± s) [8, 13]: 0.89 ± 0.30 | OD Value (x ± s) [8, 14]: 1.28 ± 0.07 | Inhibition Rate [8, 14]: 0.06 | OD Value (x ± s) [8, 15]: 1.55 ± 0.11 | Inhibition Rate [8, 15]: 0.10 | OD Value (x ± s) [8, 16]: 1.24 ± 0.18 | Inhibition Rate [8, 16]: 0.26 | OD Value (x ± s) [8, 17]: 0.62 ± 0.13 | Inhibition Rate [8, 17]: 0.50 | Inhibition Rate [8, 18]: 0.42 | Inhibition Rate [8, 19]: 0.47 | Inhibition Rate [8, 20]: 0.47 | OD Value (x ± s) [8, 21]: 1.163 ± 0.102 | Inhibition Rate [8, 21]: 0.463* | G1 % [9]: 38.24% | G2 % [9]: 2.70% | S % [9]: 59.06%

CC1=C(/C=C/C(C)=C/C=C/C(C)=C/C(=O)Nc2ccc(C(F)(F)F)cc2)C(C)(C)CCC1 [Example 3a-01, (4-trifluoromethylphenyl)-(all-trans)-3,7-dimethyl-9-(2,6,6-trimethyl-1-cyclohexen-1-yl)-2,4,6,8-nonatetraenoic acid amide]
effects on AFP secretory volume (statistics, in words) [2]: meaningful in statistics | AFP [2]: 13.6* ug/L | Apoptosis Rate (%) [3]: 16.5* % | G0-G1 (%) [3]: 56.3% | G2-M (%) [3]: 4.14% | S % [3]: 24.8% | CEA [4]: 2.9 µg/L | Apoptosis Rate (%) [5]: 17.6% | G0-G1 (%) [5]: 55.6% | G2-M (%) [5]: 2.41% | S % [5]: 24.9% | OD Value (x ± s) ([6]; 1 d): 0.680 ± 0.055 | Inhibition Rate ([6]; 1 d): 0.258 | OD Value (x ± s) ([6]; 2 d): 1.042 ± 0.046 | Inhibition Rate ([6]; 2 d): 0.288 | OD Value (x ± s) ([6]; 3 d): 0.623 ± 0.006 | Inhibition Rate ([6]; 3 d): 0.328 | OD Value (x ± s) ([6]; 7 d): 1.325 ± 0.028 | Inhibition Rate ([6]; 7 d): 0.361 | γ-GT [7]: 52.3 ± 1.5 U/L | OD Value (x ± s) [8, 11]: 1.13 ± 0.16 | OD Value (x ± s) [8, 12]: 1.13 ± 0.45 | OD Value (x ± s) [8, 13]: 0.86 ± 0.13 | OD Value (x ± s) [8, 14]: 1.52 ± 0.13 | Inhibition Rate [8, 14]: 0.12 | OD Value (x ± s) [8, 15]: 0.71 ± 0.02 | Inhibition Rate [8, 15]: 0.42 | OD Value (x ± s) [8, 16]: 0.77 ± 0.03 | Inhibition Rate [8, 16]: 0.54 | OD Value (x ± s) [8, 17]: 0.30 ± 0.08 | Inhibition Rate [8, 17]: 0.77 | Inhibition Rate [8, 18]: 0.33 | Inhibition Rate [8, 19]: 0.33 | Inhibition Rate [8, 20]: 0.49 | OD Value (x ± s) [8, 21]: 0.978 ± 0.072 | Inhibition Rate [8, 21]: 0.548*

CC1=C(/C=C/C(C)=C/C=C/C(C)=C/C(=O)O)C(C)(C)CCC1 [ATRA, all-trans retinoic acid]
incidence rate of increased leukocyte count ([10]; during the treatment of APL, reported abroad): about 30% | complete remission rate ([10]; human acute promyelocytic leukaemia, 5-year clinic summary): 86%
